Test results published in patent US20070172425A1, “Testing cell cycle regulation effect of a compound using a hollow fibre cell implant” (priority 2003, published 2007).
Values joined by “and” are separate entries in the source; they are usually repeats but may differ in a detail not shown here. Equal entries are not always repeated.

How the values were obtained:
HCT116 cells [1] = test: Inhibition of topotecan induced G2 arrest in vitro (FACS); assay type: cell-based; conditions: for inhibition of topotecan induced G2 arrest: 24 h
Method: (§3) The compounds were added to the cells after G2 arrest induced by 18 h topotecan treatment at the indicated concentrations and incubated for a period of 24 h. Cells were then harvested and analyzed by FACS.
(§4) Fixed cells were centrifuged at 1600 rpm for 5 minutes and the ETOH was decanted. They were then washed with 2 ml of PBS, recentrifuged and decanted. The cells were then stained with propidium iodide. Cell cycle study was performed using a FACSCalibur (Becton Dickinson) using Cell-QuestPro software. Cell cycle distribution was determined using either Modfit (Verity software house, ME, USA) or WinMDI (Joseph Trotter, Scripps Institute) software.

tumor = conditions: 100 and 200 mg/kg, intraperitoneal injection, literature; cited from earlier work
HCT116 cells [2] = test: In vivo hollow fibre PD model, topotecan G2 arrested cells implanted in mice (FACS); conditions: for 0 h G2 % / 24 h % G1 / 24 h % G2 / Δ% G2/ Δ% G1 / SΔ % G2: Control TOP (vehicle); for SΔ % G2: % G2 at 24 h - % G2 at 0 h
Method: Specifically, HCT116 cells were first arrested at G2 with topotecan (TOP) treatment. At the end of 18 h topotecan treatment, fibres were implanted subcutaneously to mice with 4 fibres per mouse (FIG. 3A). Control fibres without topotecan treatment were also included (FIGS. 3F, G). […] The first injection was administered immediately after fibre implantation while the second injection was given 5 hours later. Mice in the TOP alone control group (n=2) received vehicle (0.9% NaCl) only (FIG. 3D). After implantation, fibres (8 fibres per time point) were retrieved from mice at indicated time points. Cells were then flushed out from the fibres and analyzed by FACS and immunoblotting.
At indicated time points, fibres were removed from mice, wiped with gauze and placed in petri dishes or 6 well plates containing enough warm media to cover fibres. Both ends of the fibres were then cut open using forceps and scissors. The fibres were flushed twice with a 200 μL pipette filled with medium by inserting into fibre opening. The medium containing the cells were collected and centrifuged for 3-minutes at 1600 rpm. The supernatant was discarded and 1 mL of trypsin was added onto the pellets and mixed until single cell suspension is obtained. Then, 5 mL of serum rich medium was added to the cell suspension and centrifuged. The supernatant was then decanted leaving approximately 200 μL of cell suspension. The suspension was then added. drop wise while vortexing to 5 mL of ice cold 70% ETOH. Cells were then fixed at −20° C. for a minimum of 1 hour. The cells obtained were then processed according to FACS staining protocol. 3-8 fibres from each time point were typically used for FACS analysis.

H460 cells [3] = test: Inhibition of topotecan induced G2 arrest in vitro (FACS); assay type: cell-based; conditions: 24 h
Method: as §3, §4

HCT116 cells [4] = test: Double thymidine block and G2 arrest with brief topotecan treatment in vitro; assay type: cell-based; conditions: 1 h treatment, 24 h after block removal
Method: We adapted the study of G2 checkpoint regulation to the study of other cell cycle regulation pathways. Cells were first synchronized at the G1/S boundary by means of a double thymidine block (FIG. 7A-F). After synchronization, cells were harvested at indicated time points for observation of cell cycle progression (7B, C). To arrest cells at G2 checkpoint, the synchronized cells were incubated with topotecan at indicated concentrations for 1 h, and the topotecan was added 30 to 60 minutes after the release of double thymidine block. Topotecan treated cells were then harvested 24 h after double thymidine block and analyzed with FACS. Alternatively, at the end of double thymidine block, fibres were implanted to mice subcutaneously (4 fibres per mouse); fibres were retrieved from mice at the specified time points (8 fibres per time point) and analyzed by FACS. Control fibers without double thymidine treatment (8A, F) were also included.
Cells were plated onto 10-cm dishes on day 1 such that 30% confluence is reached on day 2. In hollow fibre experiments, loaded fibres were made on day 1, and incubated in the dishes overnight. On day 2, thymidine was added to the dishes to a final concentration of 2 mM. […] Cells were harvested 24 hours after the second thymidine treatment, and analyzed by FACS analysis. […]

H460 cells [5] = test: Topotecan induced G2 arrest in vitro (topotecan titration, FACS); assay type: cell-based
Method: (§1) To perform the experiments, cells were grown to 50% confluency in 10 cm dishes. The cells were then dosed with topotecan at indicated concentrations for 18 hours. Cells were then harvested and the G2 arrest was analyzed by FACS analysis 24 h later.
(§2) The cells were then stained with propidium iodide.

HCT116 cells [6] = test: as above; assay type: cell-based
Method: as §1, §2

[7] = TOP alone (50 nM, 18 h), 30 h, mean
[8] = TOP alone (50 nM, 18 h), 30 h, single replicates, listed as TOP

Cn1c(=O)c2c(ncn2C)n(C)c1=O [Caffeine]
inhibition of topotecan induced G2 arrest (HCT116 cells [1]; 4 mM, HCT116): significantly inhibits topotecan induced G2 arrest | sensitization of tumor to radiotherapy by inhibiting radiation induced G2 arrest (tumor): sensitize tumor to radiotherapy | inhibition of topotecan induced G2 arrest in tumor cells in vivo (HCT116 cells [2]; systemic injection to mice): inhibit topotecan induced G2 arrest | inhibition of topotecan induced G2 arrest (H460 cells [3]; 4 mM, H460): significantly inhibits topotecan induced G2 arrest

Cn1c2ccccc2c2c3c(c4c5ccccc5n(CCC#N)c4c21)CNC3=O [Go6976]
inhibition of topotecan induced G2 arrest (HCT116 cells [1]; 1.3 μM, HCT116 (FIG. 2H)): effectively inhibits G2 arrest | toxicity to cells (microscope, FACS) (HCT116 cells [1]; Go6976 alone at the tested concentration): does not show any signs of toxicity | inhibition of topotecan induced G2 arrest (H460 cells [3]; 5 μM, H460 (FIG. 2D)): effectively inhibits G2 arrest

CC[C@@]1(O)C(=O)OCc2c1cc1n(c2=O)Cc2cc3c(CN(C)C)c(O)ccc3nc2-1 [Topotecan]
G2 arrest of double thymidine block synchronized cells (HCT116 cells [4]; 2 μM): complete G2 arrest | S phase arrest of double thymidine block synchronized cells (HCT116 cells [4]; 5 μM): noticeable S phase arrest | time at which cells begin to reenter the cell cycle after topotecan treatment (H460 cells [5]; H460): about 7 h | concentration that sufficiently arrests cells at the G2 checkpoint (H460 cells [5]; H460, 18 h treatment): 50 nM | time at which cells begin to reenter the cell cycle after topotecan treatment (HCT116 cells [6]; HCT116): ~9 h | minimal concentration required to achieve an efficient G2 arrest (HCT116 cells [6]; HCT116, 18 h treatment): 25 nM | G2 arrest at 30 hour after implantation (HCT116 cells [2]; 30 nM topotecan, 30 h): ~70% | cells arrested at G2/M phase at time 0 h (HCT116 cells [2]; 50 nM topotecan 18 h, HCT116 in hollow fibres, 0 h): About 90% | G2 arrest at 30 hour after implantation (HCT116 cells [2]; 50 nM topotecan, 30 h): about 90% | 0 h G2 % (HCT116 cells [2]; Exp. 1, 0 h): 83.00% | 24 h % G1 (HCT116 cells [2]; Exp. 1, 24 h): 23.00% | 24 h % G2 (HCT116 cells [2]; Exp. 1, 24 h): 71.00% | Δ% G2/ Δ% G1 (HCT116 cells [2]; Exp. 1, 24 h): 3.09 | SΔ % G2 (HCT116 cells [2]; Exp. 1): −12.00% | 0 h G2 % (HCT116 cells [2]; Exp. 2, 0 h): 69.00% | 24 h % G1 (HCT116 cells [2]; Exp. 2, 24 h): 16.00% | 24 h % G2 (HCT116 cells [2]; Exp. 2, 24 h): 58.00% | Δ% G2/ Δ% G1 (HCT116 cells [2]; Exp. 2, 24 h): 3.63 | SΔ % G2 (HCT116 cells [2]; Exp. 2): −11.00% | % G1, Mean (HCT116 cells [2]; [7]): 7.9% | % G2, Mean (HCT116 cells [2]; [7]): 88.7% | Odd (% G2/% G1), Mean (HCT116 cells [2]; [7]): 11.4 | % G1 (HCT116 cells [2]; [8]): 7.3% and 7.2% and 9.0% | % G2 (HCT116 cells [2]; [8]): 88.1% and 90.2% and 87.9% | Odd (% G2/% G1) (HCT116 cells [2]; [8]): 12.0 and 12.5 and 9.7 | Odd ratio (HCT116 cells [2]; TOP alone, reference group): 1.0
